Experimental data: US20260365641A1, “Aromatic Acetylene Derivative, Preparation Method Therefor, And Use Thereof” (Zhejiang Hisun Pharmaceutical Co., Ltd., priority 2022, published 2026)
≈ marks a conversion by molar mass, not a printed value.

How the values were obtained:
[1] = target: T1, recombinant Pseudomonas aeruginosa LpxC (Pseudomonas aeruginosa, UniProt P47205); experiment: Inhibition of enzymatic activity of recombinant Pseudomonas aeruginosa LpxC in vitro; format: biochemical; settings: 5 nM LpxC; substrate UDP-3-O—(R-3-hydroxydecanoyl)-GlcNAc; 25 °C, 120 minutes; fluorescamine readout
T1 construct: purchased Signalway Antibody AP74647-2
T1 sequence (P47205 1-303): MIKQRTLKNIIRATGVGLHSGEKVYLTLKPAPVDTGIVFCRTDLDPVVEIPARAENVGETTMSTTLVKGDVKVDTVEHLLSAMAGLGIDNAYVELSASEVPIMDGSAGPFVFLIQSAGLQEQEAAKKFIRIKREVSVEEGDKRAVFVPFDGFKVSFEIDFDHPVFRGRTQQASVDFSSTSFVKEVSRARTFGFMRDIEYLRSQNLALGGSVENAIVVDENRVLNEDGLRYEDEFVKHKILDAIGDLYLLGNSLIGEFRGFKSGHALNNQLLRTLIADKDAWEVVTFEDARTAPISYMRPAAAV
Protocol: The following method was used to determine degrees of inhibition of the compounds of the present invention on the enzymatic activity of recombinant Pseudomonas aeruginosa LpxC in vitro.
The test process was briefly described as follows: the tested compound was first dissolved in DMSO to prepare a 10 mM storage solution. The reaction was carried out in a 96-well microplate. Firstly, 20 μL of recombinant Pseudomonas aeruginosa LpxC (purchased from Signalway Antibody, article number AP74647-2) was added into the wells, and the final concentrations were 5 nM respectively. 5 μL of the compound to be tested was added, diluted in 4-fold, with 8 concentration points, and the concentration range was 0.61-10000 nM. 5 μL of LpxC substrate UDP-3-O—(R-3-hydroxydecanoyl)-GlcNAc (purchased from Biosynth Carbosynth, article number mu75071) was added, wherein a final concentration of the substrate was […], and the substrate was incubated at 25 °C for 120 minutes. Subsequently, 20 μL of 2.0 mg/mL fluorescamine (purchased from sigma aldrich, article number F9015, wherein a solvent was dimethylformamide/acetonitrile (1:1)) was added to the reaction system, mixed evenly and reacted for 10 minutes. Finally, 50 μL of 200 mM sodium phosphate buffer solution (pH 8.0) was added to stop the reaction, and a microplate reader (BMG) was used for reading. An excitation wavelength and an emission wavelength were 390 nm and 495 nm respectively. Compared with the fluorescence intensity ratio of a control group (0.1% DMSO), the percentage inhibition rates of the compounds at each concentration were calculated, and the IC50 values of the compounds were obtained by performing nonlinear regression analysis with logarithmic value of the compound concentration-inhibition rate by GraphPad Prism 5 software, which can be seen in Table 1.

E. coli ATCC 25922 = experiment: Antibacterial activity, minimum inhibitory concentration (MIC) in vitro, broth dilution; format: cell-based; settings: Escherichia coli, ATCC25922, 5×10^5 cfu/mL, 35 °C, 18-24 hours
Protocol: (§1) The minimum inhibitory concentration (MIC) in vitro was determined according to CLSI's guidelines, and a minimal broth dilution method was used.
(§2) The test process was briefly described as follows: the tested compound was dissolved in DMSO to prepare a storage solution of […], and then prepared into 11 two-fold-diluted 100× high-concentration working liquids (a final concentration of the system was 64 μg/mL to 0.06 μg/mL) by DMSO. Stains (K. pneumoniae ATCC13883, K. pneumoniae ATCC51504 and E. coli ATCC 25922) frozen at −80 °C with glycerin were inoculated to a solid agar culture medium, placed into an incubator for culturing for 18-24 hours at 35 °C to finish the preparation work of the strains. A proper amount of solid plate culture was collected, re-suspended in normal saline, and uniformly mixed. The turbidity of the bacterial suspension was adjusted to a proper turbidity by a turbidity meter, containing about 1×10^8 cfu/mL of bacteria. Then, the turbidity-regulated bacterial suspension was diluted with a test culture medium (type: CAMHIIB, purchased from BD company) to a bacterial concentration of 5×10^5 cfu/mL, thus finishing the preparation of an inoculation solution. 198 μL of the inoculation solution was inoculated into a 96-well plate, and added with 2 μL 100× high concentration working liquid of the compound, then the 96-well plate was placed at 35 °C for culturing for 18-24 hours.

K. pneumoniae ATCC13883 = experiment: as above; format: cell-based; settings: Klebsiella pneumoniae, 5×10^5 cfu/mL, 35 °C, 18-24 hours
Protocol: as §1, §2

K. pneumoniae ATCC51504 = experiment: as above; format: cell-based; settings: Klebsiella pneumoniae, 5×10^5 cfu/mL, 35 °C, 18-24 hours
Protocol: as §1, §2

SMILES	IC50 [1]	MIC (E. coli ATCC 25922)	MIC (K. pneumoniae ATCC13883)	MIC (K. pneumoniae ATCC51504)
C[C@H](O)c1nccn1Cc1cc(-c2ccc(C#CC3CC4(C3)CN(C(N)=O)C4)cc2)on1 [Example 21, (S)-6-((4-(3-((2-(1-hydroxyethyl)-1H-imidazol-1-yl)methyl)isoxazol-5-yl)phenyl)ethynyl)-2-azaspiro[3.3]heptane-2-carboxamide]	5.11 nM	2 µg/mL (≈ 4.64 µM)	4 µg/mL (≈ 9.27 µM)	
C[C@H](O)c1nccn1Cc1cc(-c2ccc(C#CC3CC4(CCN(C=O)C4)C3)cc2)on1 (stereo partly drawn) [Example 23, (S)-2-((4-(3-((2-(1-hydroxyethyl)-1H-imidazol-1-yl)methyl)isoxazol-5-yl)phenyl)ethynyl)-6-azaspiro[3.4]octane-6-carbaldehyde]	6.36 nM	2 µg/mL (≈ 4.65 µM)	4 µg/mL (≈ 9.29 µM)	
CNC(=O)N1CC2(CC(C#Cc3ccc(-c4cc(Cn5ccnc5[C@H](C)O)no4)cc3)C2)C1 [Example 47, (S)-6-((4-(3-((2-(1-hydroxyethyl)-1H-imidazol-1-yl)methyl)isoxazol-5-yl)phenyl)ethynyl)-N-methyl-2-azaspiro[3.3]heptane-2-carboxamide]	13.1 nM	2 µg/mL (≈ 4.49 µM)	2 µg/mL (≈ 4.49 µM)	
C[C@H](O)c1nccn1Cc1cc(-c2ccc(C#CC3CC4(C3)CN(C(=O)n3ccnc3)C4)cc2)on1 [Example 48, (S)-(6-((4-(3-((2-(1-hydroxyethyl)-1H-imidazol-1-yl)methyl)isoxazol-5-yl)phenyl)ethynyl)-2-azaspiro[3.3]heptan-2-yl)(1H-imidazol-1-yl)methanone]	27.9 nM	2 µg/mL (≈ 4.14 µM)	2 µg/mL (≈ 4.14 µM)	
C[C@H](O)c1nccn1Cc1cc(-c2ccc(C#CC3CC4(C3)CN(C(=O)CO)C4)cc2)on1 [Example 26, (S)-2-hydroxy-1-(6-((4-(3-((2-(1-hydroxyethyl)-1H-imidazol-1-yl)methyl)isoxazol-5-yl)phenyl)ethynyl)-2-azaspiro[3.3]heptan-2-yl)ethan-1-one]	11.3 nM	2 µg/mL (≈ 4.48 µM)	2 µg/mL (≈ 4.48 µM)	
C[C@H](O)c1nccn1Cc1cc(-c2ccc(C#CC3CC4(CCN(Cc5ccn[nH]5)CC4)C3)cc2)on1 [Example 25, (S)-1-(1-((5-(4-((7-((1H-pyrazol-5-yl)methyl)-7-azaspiro[3.5]nonan-2-yl)ethynyl)phenyl)isoxazol-3-yl)methyl)-1H-imidazol-2-yl)ethan-1-ol]	7.28 nM	2 µg/mL (≈ 4.03 µM)	4 µg/mL (≈ 8.05 µM)	
C[C@H](O)c1nccn1Cc1cc(-c2ccc(C#CC3=CCN(Cc4ccc(C(=O)O)cc4)CC3)cc2)on1 [Example 34, (S)-4-((4-((4-(3-((2-(1-hydroxyethyl)-1H-imidazol-1-yl)methyl)isoxazol-5-yl)phenyl)ethynyl)-3,6-dihydropyridin-1(2H)-yl)methyl)benzoic acid]	26.7 nM	2 µg/mL (≈ 3.93 µM)	4 µg/mL (≈ 7.87 µM)	
C[C@H](O)c1nccn1Cc1cc(-c2ccc(C#CC3CC4(CCN(C(=O)CC#N)CC4)C3)cc2)on1 [Example 29, (S)-3-(2-((4-(3-((2-(1-hydroxyethyl)-1H-imidazol-1-yl)methyl)isoxazol-5-yl)phenyl)ethynyl)-7-azaspiro[3.5]nonan-7-yl)-3-oxopropanenitrile]	6.17 nM	2 µg/mL (≈ 4.14 µM)	4 µg/mL (≈ 8.27 µM)	
C[C@H](O)c1nccn1Cc1cc(-c2ccc(C#CC3CC4(CCN(C(N)=O)CC4)C3)cc2)on1 [Example 19, (S)-2-((4-(3-((2-(1-hydroxyethyl)-1H-imidazol-1-yl)methyl)isoxazol-5-yl)phenyl)ethynyl)-7-azaspiro[3.5]nonane-7-carboxamide]	6.05 nM	2 µg/mL (≈ 4.35 µM)	4 µg/mL (≈ 8.7 µM)	
C[C@H](O)c1nccn1Cc1cc(-c2ccc(C#CC3CC4(CCN(C(=O)CO)CC4)C3)cc2)on1 [Example 12, (S)-2-hydroxy-1-(2-((4-(3-((2-(1-hydroxyethyl)-1H-imidazol-1-yl)methyl)isoxazol-5-yl)phenyl)ethynyl)-7-azaspiro[3.5]nonan-7-yl)ethan-1-one]	4.06 nM	2 µg/mL (≈ 4.21 µM)	4 µg/mL (≈ 8.43 µM)	
C[C@H](O)c1nccn1Cc1cc(-c2ccc(C#CC3CC4(C3)CN(C3CC(C#N)C3)C4)cc2)on1 (stereo partly drawn) [Example 49, (S)-3-(6-((4-(3-((2-(1-hydroxyethyl)-1H-imidazol-1-yl)methyl)isoxazol-5-yl)phenyl)ethynyl)-2-azaspiro[3.3]heptan-2-yl)cyclobutane-1-carbonitrile]	22.6 nM	1 µg/mL (≈ 2.14 µM)	2 µg/mL (≈ 4.28 µM)	
C[C@H](O)c1nccn1Cc1cc(-c2ccc(C#CC3CC4(C3)CN(C=O)C4)cc2)on1 [Example 22, (S)-6-((4-(3-((2-(1-hydroxyethyl)-1H-imidazol-1-yl)methyl)isoxazol-5-yl)phenyl)ethynyl)-2-azaspiro[3.3]heptane-2-carbaldehyde]	6.54 nM	1 µg/mL (≈ 2.4 µM)	4 µg/mL (≈ 9.6 µM)	
C[C@H](O)c1nccn1Cc1cc(-c2ccc(C#CC3=CCN(C(=O)c4ccncc4)CC3)cc2)on1 [Example 33, (S)-(4-((4-(3-((2-(1-hydroxyethyl)-1H-imidazol-1-yl)methyl)isoxazol-5-yl)phenyl)ethynyl)-3,6-dihydropyridin-1(2H)-yl)(pyridin-4-yl)methanone]	19.7 nM	1 µg/mL (≈ 2.09 µM)	2 µg/mL (≈ 4.17 µM)	
COCCC(=O)N1CC=C(C#Cc2ccc(-c3cc(Cn4ccnc4[C@H](C)O)no3)cc2)CC1 [Example 67, (S)-1-(4-((4-(3-((2-(1-hydroxyethyl)-1H-imidazol-1-yl)methyl)isoxazol-5-yl)phenyl)ethynyl)-3,6-dihydropyridin-1(2H)-yl)-3-methoxypropan-1-one]	22.9 nM	1 µg/mL (≈ 2.17 µM)		0.5 µg/mL (≈ 1.09 µM)
C[C@H](O)c1nccn1Cc1cc(-c2ccc(C#CC3=CCN(C(=O)C4CCOC4)CC3)cc2)on1 (stereo partly drawn) [Example 41, (4-((4-(3-((2-((S)-1-hydroxyethyl)-1H-imidazol-1-yl)methyl)isoxazol-5-yl)phenyl)ethynyl)-3,6-dihydropyridin-1(2H)-yl)(tetrahydrofuran-3-yl)methanone]	22.3 nM	1 µg/mL (≈ 2.12 µM)		0.25 µg/mL (≈ 0.529 µM)
COCC(=O)N1CC=C(C#Cc2ccc(-c3cc(Cn4ccnc4[C@H](C)O)no3)cc2)CC1 [Example 68, (S)-1-(4-((4-(3-((2-(1-hydroxyethyl)-1H-imidazol-1-yl)methyl)isoxazol-5-yl)phenyl)ethynyl)-3,6-dihydropyridin-1(2H)-yl)-2-methoxyethan-1-one]	21.2 nM	1 µg/mL (≈ 2.24 µM)		1 µg/mL (≈ 2.24 µM)
C[C@H](O)c1nccn1Cc1cc(-c2ccc(C#CC3=CCN(C=O)CC3)cc2)on1 [Example 57, (S)-4-((4-(3-((2-(1-hydroxyethyl)-1H-imidazol-1-yl)methyl)isoxazol-5-yl)phenyl)ethynyl)-3,6-dihydropyridine-1(2H)-carbaldehyde]	29.4 nM	2 µg/mL (≈ 4.97 µM)		1 µg/mL (≈ 2.48 µM)
C[C@H](O)c1nccn1Cc1cc(-c2ccc(C#CC3=CCN(CCC#N)CC3)cc2)on1 [Example 44, (S)-3-(4-((4-(3-((2-(1-hydroxyethyl)-1H-imidazol-1-yl)methyl)isoxazol-5-yl)phenyl)ethynyl)-3,6-dihydropyridin-1(2H)-yl)propanenitrile]	24.9 nM	1 µg/mL (≈ 2.34 µM)		0.5 µg/mL (≈ 1.17 µM)
